We go through 23 compounds from US9815842B2, “Pyrazolo pyrimidine derivatives and their use as MALT1 inhibitors” (Novartis AG, priority 2014, dated 2017).

Test [1] deals with cIAP2-MALT1 fusion protein (Homo sapiens, UniProt Q9UDY8). In words: cell-based.
Method: For the measurement of compound inhibition, 0.25 μl of test compound were mixed with 12.5 μl of enzyme in wells of the 384-well plates, and incubated for 60 minutes at room temperature (22° C.). After that, 12.5 μl of substrate was added, and the enzymatic reaction was allowed to proceed for 60 minutes at room temperature (22° C.). […] The DMSO content was between 0.9 and 1% (v/v). […] The IC50 value was calculated from the plot of percentage inhibition versus inhibitor concentration using non-linear regression analysis software (Origin, OriginLab Corporation, USA). The data were fitted using a 4 Parameter Logistic Model, characterized by the following equation: y=A2+(A1−A2)/(1+(x/IC50)^p) where y is the %-inhibition at the inhibitor concentration, x. A1 is the lowest inhibition value, and A2 the maximum inhibition value.
Test [2] addresses C-domain of MALT1 (amino acids 329-824) (Homo sapiens (Human), UniProt Q9UDY8). In words: MALT1 biochemical assay (fluorescence lifetime enzyme activity assay). To be noted: 60 min pre-incubation, 2.5 nM enzyme, 1 μM peptide substrate. As to the method: The readout parameter is the increase of fluorescence lifetime over time, proportional to enzyme activity.
The assay employs a short peptide substrate labeled with the single fluorophore PT14 as a fluorescence lifetime probe sensitive to the cleavage state of the substrate (PT14: 6-(9-oxo-9H-acridin-10-yl)-hexanoate, AssayMetrics, UK). […] The assay buffer consists of 200 mM Tris/HCl at pH 7.5, 0.8 M Na citrate, 100 μM EGTA, 100 μM DTT and 0.05% (w/v) CHAPS. […] Test compounds were dissolved in 100% (v/v) DMSO or a mixture containing 90% (v/v) DMSO and 10% (v/v) H2O at a stock concentration of 100 mM. Serial dilutions of test compounds were prepared using either 100% (v/v) DMSO or a mixture containing 90% (v/v) DMSO and 10% (v/v) H2O.

For a further test, the system named is Human IL2 promoter. The test can be described thus: Human IL2 promoter reporter gene assay (RGA) in Jurkat cells. The class given is cell-based. The settings on record: Jurkat clone K22 290_H23, anti-CD28 mAb + PMA stimulation 5.5 h. As to the method:
Human IL2 Promoter Reporter Gene Assay (RGA) in Jurkat Cells
The transfected Jurkat clone K22 290_H23 was propagated in RPMI 1640 supplemented with 10% heat inactivated fetal calf serum, 50 μM 2-mercaptoethanol and 1 mg/ml Geneticin. The cell concentration should not exceed 1×10e6/ml during culturing. The cells should not exceed passage 30. Prior to the assay the cells were washed and prepared to the concentration of 2×10e6 cells/ml.
Compound dilutions were made as 2×-concentrated solutions then diluted 1/2 by addition to cells. Two hundred and fifty μl of compound dilution and 250 μl of cells were mixed together in wells of a 96-deep well plate. Cells/compounds premix were incubated 30 min at 37° C. and 5% CO2 directly in the deep well plate.
After pre-incubation of cells with compounds, cells were stimulated with anti-CD28 mAb (clone 15E8) at 3 μg/ml+PMA at 1 μg/ml. Both co-stimulants were diluted in culture medium at a 10×-concentrated solution. 10 μl of co-stimulants were pipetted into the white 96-well plates and 100 μl of cell/compound mix was immediately added in duplicates. The cells were stimulated for 5.5 h at 37° C. and 5% CO2.
After cell stimulation, 50 μl of BriteLitePlus reagent (Perkin Elmer) was added to each well and the bioluminescence was measured with a Wallac EnVision reader (Perkin Elmer).
(In general: In a reporter assay the amount or activity of a reporter protein is the signal.)

The IC50 is the concentration at which inhibition is half-maximal.

Molecules are shown by their SMILES.

Chain of C-domain of MALT1 (amino acids 329-824) (Q9UDY8 329-824): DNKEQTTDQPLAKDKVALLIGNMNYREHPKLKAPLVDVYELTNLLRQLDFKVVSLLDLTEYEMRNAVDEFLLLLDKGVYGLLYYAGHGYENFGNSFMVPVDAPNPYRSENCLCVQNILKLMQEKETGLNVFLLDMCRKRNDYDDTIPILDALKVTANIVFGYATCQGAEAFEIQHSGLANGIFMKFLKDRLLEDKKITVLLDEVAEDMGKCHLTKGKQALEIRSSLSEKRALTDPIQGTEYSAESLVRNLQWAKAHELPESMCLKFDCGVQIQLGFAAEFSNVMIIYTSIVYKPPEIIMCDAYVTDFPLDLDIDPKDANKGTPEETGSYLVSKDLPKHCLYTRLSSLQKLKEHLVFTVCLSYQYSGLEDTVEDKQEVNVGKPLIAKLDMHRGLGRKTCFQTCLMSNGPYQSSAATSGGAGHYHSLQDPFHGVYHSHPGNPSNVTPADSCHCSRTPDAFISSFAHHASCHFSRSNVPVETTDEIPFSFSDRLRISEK
Chain of cIAP2-MALT1 fusion protein (Q9UDY8 2-824 limits assumed): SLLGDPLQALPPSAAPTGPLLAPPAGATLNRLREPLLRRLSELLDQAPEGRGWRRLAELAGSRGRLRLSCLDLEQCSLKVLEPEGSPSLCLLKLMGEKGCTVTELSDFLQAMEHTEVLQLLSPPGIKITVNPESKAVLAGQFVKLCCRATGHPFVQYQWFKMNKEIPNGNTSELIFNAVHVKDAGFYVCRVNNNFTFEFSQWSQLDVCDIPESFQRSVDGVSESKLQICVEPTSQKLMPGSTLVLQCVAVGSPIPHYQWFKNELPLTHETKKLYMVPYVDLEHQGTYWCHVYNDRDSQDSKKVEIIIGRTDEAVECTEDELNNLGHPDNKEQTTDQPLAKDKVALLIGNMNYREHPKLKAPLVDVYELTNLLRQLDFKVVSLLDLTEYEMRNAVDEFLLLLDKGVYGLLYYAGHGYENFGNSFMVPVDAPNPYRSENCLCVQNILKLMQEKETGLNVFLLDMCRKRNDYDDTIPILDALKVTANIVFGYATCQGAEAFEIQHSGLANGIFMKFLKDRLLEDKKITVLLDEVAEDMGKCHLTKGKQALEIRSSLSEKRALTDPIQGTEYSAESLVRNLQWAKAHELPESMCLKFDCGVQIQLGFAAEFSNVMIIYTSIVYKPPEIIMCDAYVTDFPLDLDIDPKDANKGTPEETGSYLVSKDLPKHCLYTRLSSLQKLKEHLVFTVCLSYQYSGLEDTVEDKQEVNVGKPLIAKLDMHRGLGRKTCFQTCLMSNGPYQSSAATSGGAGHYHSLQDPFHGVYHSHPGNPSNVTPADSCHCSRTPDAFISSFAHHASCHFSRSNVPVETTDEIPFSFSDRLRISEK

In the case of `CO[C@@H](C)c1c(NC(=O)Nc2cnc(-n3nccn3)c(Cl)c2)cnc2cc(C)nn12` [Example 71, (S)-1-(5-chloro-6-(2H-1,2,3-triazol-2-yl)pyridin-3-yl)-3-(7-(1-methoxyethyl)-2-methylpyrazolo[1,5-a]pyrimidin-6-yl)urea], the half-maximal inhibitory concentration (IC50) in test [1] came to 79 nM; in test [2] it was 5 nM; in the test with Human IL2 promoter, 14 nM.
For `CCOc1ncc(NC(=O)Nc2cnc3cc(Cl)nn3c2C(C)C)cc1Cl` [Example 25, 1-(5-chloro-6-ethoxypyridin-3-yl)-3-(2-chloro-7-isopropylpyrazolo[1,5-a]pyrimidin-6-yl)urea], the half-inhibitory concentration (IC50) in test [1] was 306 nM; with Human IL2 promoter, 526 nM.
Turning to `COC(=O)c1cc(Cl)cc(NC(=O)Nc2cnc3cc(Cl)nn3c2[C@H](C)OC)c1` [Example 13, (S)-methyl 3-chloro-5-(3-(2-chloro-7-(1-methoxyethyl)pyrazolo[1,5-a]pyrimidin-6-yl)ureido)benzoate], the results for the IC50 (in test [1]; in test [2]; in the test on Human IL2 promoter) were 77 nM, 2 nM and 39 nM, respectively.
On to `COCC1(c2c(NC(=O)Nc3cnc(-n4nccn4)c(Cl)c3)cnc3cc(Cl)nn23)CC1` [Example 76, 1-(5-chloro-6-(2H-1,2,3-triazol-2-yl)pyridin-3-yl)-3-(2-chloro-7-(1-(methoxymethyl)cyclopropyl)pyrazolo[1,5-a]pyrimidin-6-yl)urea], for which the IC50 in test [1] came to 84 nM; in test [2], 6 nM; with Human IL2 promoter, 28 nM.
In the case of `CC(C)c1c(NC(=O)Nc2ccc(-c3ccnc(N)n3)c(Cl)c2)cnc2cc(Cl)nn12` [Example 23, 1-(4-(2-aminopyrimidin-4-yl)-3-chlorophenyl)-3-(2-chloro-7-isopropylpyrazolo[1,5-a]pyrimidin-6-yl)urea], the IC50 in test [1] was found to be 301 nM; with Human IL2 promoter, 307 nM.
As to `COCCC(OC)c1c(NC(=O)Nc2cnc(-n3nccn3)c(Cl)c2)cnc2cc(Cl)nn12` (stereo not shown) [Example 64, 1-(5-chloro-6-(2H-1,2,3-triazol-2-yl)pyridin-3-yl)-3-(2-chloro-7-(1,3-dimethoxypropyl)pyrazolo[1,5-a]pyrimidin-6-yl)urea], the IC50 was 187 nM in test [1] and 13 nM in test [2].
As for `CC(C)(C)c1c(NC(=O)Nc2cnc(-n3nccn3)c(Cl)c2)cnc2cc(Cl)nn12` [Example 34, 1-(7-(tert-butyl)-2-chloropyrazolo[1,5-a]pyrimidin-6-yl)-3-(5-chloro-6-(2H-1,2,3-triazol-2-yl)pyridin-3-yl)urea], the figures for the 50% inhibitory concentration (IC50) in test [1] and in test [2] were 106 nM and 4 nM, respectively.
The matching figures for `CO[C@@H](c1c(NC(=O)Nc2ccnc(C(F)(F)F)c2)cnc2cc(Cl)nn12)C(C)C` [Example 37, (R)-1-(2-chloro-7-(1-methoxy-2-methylpropyl)pyrazolo[1,5-a]pyrimidin-6-yl)-3-(2-(trifluoromethyl)pyridin-4-yl)urea]: 221 nM and 11 nM.
As to `O=C(Nc1cnc(-n2nccn2)c(Cl)c1)Nc1cnc2cc(Cl)nn2c1C1CCOC1` (stereo not shown) [Example 57, 1-(5-chloro-6-(2H-1,2,3-triazol-2-yl)pyridin-3-yl)-3-(2-chloro-7-(tetrahydrofuran-3-yl)pyrazolo[1,5-a]pyrimidin-6-yl)urea], the IC50 in test [1] was 284 nM; in test [2], 19 nM.
Take `CC1(c2c(NC(=O)Nc3ccnc(C(F)(F)F)c3)cnc3cc(Cl)nn23)CC1` [Example 17, 1-(2-chloro-7-(1-methylcyclopropyl)pyrazolo[1,5-a]pyrimidin-6-yl)-3-(2-(trifluoromethyl)pyridin-4-yl)urea]: the results for the IC50 in test [1] and in test [2] were 117 nM and 11 nM, respectively.
In the case of `CO[C@@H](c1c(NC(=O)Nc2cnc(-n3nccn3)c(Cl)c2)cnc2cc(Cl)nn12)C(C)C` [Example 5, (R)-1-(5-chloro-6-(2H-1,2,3-triazol-2-yl)pyridin-3-yl)-3-(2-chloro-7-(1-methoxy-2-methylpropyl)pyrazolo[1,5-a]pyrimidin-6-yl)urea], the figures for the IC50 in test [1] and in test [2] were 112 nM and 5 nM, respectively.
Turning to `C[C@@H](OCc1ccccc1)c1c(NC(=O)Nc2cnc(-n3nccn3)c(C(F)(F)F)c2)cnc2cc(Cl)nn12` [Example 65, (R)-1-(6-(2H-1,2,3-triazol-2-yl)-5-(trifluoromethyl)pyridin-3-yl)-3-(7-(1-(benzyloxy)ethyl)-2-chloropyrazolo[1,5-a]pyrimidin-6-yl)urea], the results for the IC50 in test [1] and in test [2] were 405 nM and 9 nM, respectively.
Take `CO[C@H](C)CO[C@@H](C)c1c(NC(=O)Nc2cnc(-n3nccn3)c(Cl)c2)cnc2cc(Cl)nn12` [Example 85, 1-(5-chloro-6-(2H-1,2,3-triazol-2-yl)pyridin-3-yl)-3-(2-chloro-7-((S)-1-((R)-2-methoxypropoxy)ethyl)pyrazolo[1,5-a]pyrimidin-6-yl)urea]: the IC50 in test [1] amounted to 190 nM; in test [2], 5 nM.
As to `C[C@H](OCCN(C)C)c1c(NC(=O)Nc2cnc(-n3nccn3)c(Cl)c2)cnc2cc(Cl)nn12` [Example 82, (S)-1-(5-chloro-6-(2H-1,2,3-triazol-2-yl)pyridin-3-yl)-3-(2-chloro-7-(1-(2-(dimethylamino)ethoxy)ethyl)pyrazolo[1,5-a]pyrimidin-6-yl)urea], the IC50 in test [1] was found to be 311 nM; in test [2], 122 nM.
For `COc1ncc(NC(=O)Nc2cnc3cc(Cl)nn3c2C2C3COCC32)cc1Cl` (stereo not shown) [Example 67, 1-(7-(3-oxabicyclo[3.1.0]hexan-6-yl)-2-chloropyrazolo[1,5-a]pyrimidin-6-yl)-3-(5-chloro-6-methoxypyridin-3-yl)urea], the results for the IC50 in test [1] and in test [2] were 553 nM and 35 nM, respectively.
The matching figures for `CO[C@@H](C)c1c(NC(=O)Nc2ccnc(Cl)c2)cnc2cc(Cl)nn12` [Example 12, (S)-1-(2-chloro-7-(1-methoxyethyl)pyrazolo[1,5-a]pyrimidin-6-yl)-3-(2-chloropyridin-4-yl)urea]: 71 nM and 14 nM.
In the case of `CC(C)OCc1c(NC(=O)Nc2cnc(-n3nccn3)c(Cl)c2)cnc2cc(Cl)nn12` [Example 61, 1-(5-chloro-6-(2H-1,2,3-triazol-2-yl)pyridin-3-yl)-3-(2-chloro-7-(isopropoxymethyl)pyraozlo[1,5-a]pyrimidin-6-yl)urea], the IC50 in test [1] stood at 370 nM; in test [2], 19 nM.
Regarding `COC(C)(C)c1c(NC(=O)Nc2ccnc(C(F)(F)F)c2)cnc2cc(Cl)nn12` [Example 15, 1-(2-chloro-7-(2-methoxypropan-2-yl)pyrazolo[1,5-a]pyrimidin-6-yl)-3-(2-(trifluoromethyl)pyridin-4-yl)urea], the IC50 in test [1] worked out at 110 nM; in test [2], 5 nM.
For the compound `COC(c1ccccc1)c1c(NC(=O)Nc2cnc(-n3nccn3)c(Cl)c2)cnc2cc(Cl)nn12` (stereo not shown) [Example 49, 1-(5-chloro-6-(2H-1,2,3-triazol-2-yl)pyridin-3-yl)-3-(2-chloro-7-(methoxy(phenyl)methyl)pyrazolo[1,5-a]pyrimidin-6-yl)urea], the IC50 in test [1] came to 59 nM; in test [2] it was 3 nM.
With `COCCO[C@@H](C)c1c(NC(=O)Nc2cnc(-n3nccn3)c(Cl)c2)cnc2cc(Cl)nn12` [Example 39, (S)-1-(5-chloro-6-(2H-1,2,3-triazol-2-yl)pyridin-3-yl)-3-(2-chloro-7-(1-(2-methoxyethoxy)ethyl)pyrazolo[1,5-a]pyrimidin-6-yl)urea], the IC50 is 60 nM in test [1] and 3 nM in test [2].
For `CO[C@@H](c1c(NC(=O)Nc2cnc(-n3nccn3)c(C(F)(F)F)c2)cnc2cc(Cl)nn12)C(C)C` [Example 4, (R)-1-(6-(2H-1,2,3-triazol-2-yl)-5-(trifluoromethyl)pyridin-3-yl)-3-(2-chloro-7-(1-methoxy-2-methylpropyl)pyrazolo[1,5-a]pyrimidin-6-yl)urea], the concentration for half-maximal inhibition (IC50) in test [1] was 61 nM; in test [2], 6 nM.
For the compound `COCCO[C@H](C)c1c(NC(=O)Nc2cnc(-n3nccn3)c(Cl)c2)cnc2cc(Cl)nn12` [Example 42, (R)-1-(5-chloro-6-(2H-1,2,3-triazol-2-yl)pyridin-3-yl)-3-(2-chloro-7-(1-(2-methoxyethoxy)ethyl)pyrazolo[1,5-a]pyrimidin-6-yl)urea], the IC50 in test [1] amounted to 378 nM; in test [2], 21 nM.
In the same order, the values of `COc1cc(NC(=O)Nc2cnc3cc(Cl)nn3c2[C@H](C)OC)cnc1-n1nccn1` [Example 11, (S)-1-(2-chloro-7-(1-methoxyethyl)pyrazolo[1,5-a]pyrimidin-6-yl)-3-(5-methoxy-6-(2H-1,2,3-triazol-2-yl)pyridin-3-yl)urea] are 164 nM and 19 nM.
